Assay: recombinant UMI read abundance after kanamycin selection (control-corrected) (log10(CPM+1)); higher = more efficient recombination; extreme values may be limits of the assay; sequences stand for … in AGTGCAGAGAAAATCGGCCAGTTTTCTCTGCCTGCAGTCCGCATGCCGTGGGACCCCTTGGGTTCTAACCTGTTGCCTAGATTTATGCAGCGGACTGCCTTTCTCCCAAAGTGATAAACCGG…AGGTTGGTTTCACT; site = the 11-nt donor
Method in brief: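 The measure is log10(CPM+1) for recombinant UMIs. These were PCR-amplified across the donor–target junction and sequenced after Escherichia coli carrying a donor and donor-binding-loop pair library and a target plasmid with T7-inducible IS621 bridge recombinase was plated on IPTG (0.07 mM) plus kanamycin or unselected. CPM were averaged over two replicates and scaled by control-derived factors.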
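Further: IS621 bridge recombinase in Escherichia coli cells against a fixed T5 target plasmid.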

Row | Sequence | recombinant UMI read abundance (log10)
1 | TGGCCAGCATGGACCGGTTTTCCCGGTAATCCGTATTTGGC (site TGGCCGGCTGC) | 0
2 | TGGCCAGCATGGACCGGTTTTCCCGGTAATCCGTATTTGGC (site TGGCCTGCTGC) | 0.017
3 | TGGCCGACATGGACCGGTTTTCCCGGTAATCCGTATTTGGC (site TGGCCGACTGC) | 0
4 | TGGCCGACATGGACCGGTTTTCCCGGTAATCCGTATTTGGC (site TGGCCGCCTGC) | 0
5 | TGGCCGACATGGACCGGTTTTCCCGGTAATCCGTATTTGGC (site TGGCCGGCTGC) | 0.00648
6 | TGGCCGACATGGACCGGTTTTCCCGGTAATCCGTATTTGGC (site TGGCCGTCTGC) | 0
7 | TGGCCGGCATGGACCGGTTTTCCCGGTAATCCGTATTTGAC (site TGGCCGGCTGA) | 0.00628
8 | TGGCCGGCATGGACCGGTTTTCCCGGTAATCCGTATTTGAC (site TGGCCGGCTGC) | 0
9 | TGGCCGGCATGGACCGGTTTTCCCGGTAATCCGTATTTGAC (site TGGCCGGCTGG) | 0
10 | TGGCCGGCATGGACCGGTTTTCCCGGTAATCCGTATTTGAC (site TGGCCGGCTGT) | 1.4
11 | TGGCCGGCATGGACCGGTTTTCCCGGTAATCCGTATTTGGT (site TGGCCGGCTAC) | 0.0121
12 | TGGCCGGCATGGACCGGTTTTCCCGGTAATCCGTATTTGGT (site TGGCCGGCTCC) | 0.022
13 | TGGCCGGCATGGACCGGTTTTCCCGGTAATCCGTATTTGGT (site TGGCCGGCTGC) | 0
14 | TGGCCGGCATGGACCGGTTTTCCCGGTAATCCGTATTTGGT (site TGGCCGGCTTC) | 0.0272
15 | TGGCTCACATGGACCGGTTTTCCCGGTAATCCGTATTTGTG (site TGGCTCACTCA) | 0.0236
16 | TGGCTTCCATGGACCGGTTTTCCCGGTAATCCGTATTTGCT (site TGGCTTCCTAG) | 0
17 | TGGGAAACATGGACCGGTTTTCCCGGTAATCCGTATTTGGT (site TGGGAAACTAC) | 1.29
18 | TGGGCCACATGGACCGGTTTTCCCGGTAATCCGTATTTGCA (site TGGGCCACTTG) | 1.45
19 | TGGGCGGCATGGACCGGTTTTCCCGGTAATCCGTATTTGGC (site TGGACGGCTGC) | 1.49
20 | TGGGCGGCATGGACCGGTTTTCCCGGTAATCCGTATTTGGC (site TGGCCGGCTGC) | 0
21 | TGGGCGGCATGGACCGGTTTTCCCGGTAATCCGTATTTGGC (site TGGGCGGCTGC) | 2.09
22 | TGGGCGGCATGGACCGGTTTTCCCGGTAATCCGTATTTGGC (site TGGTCGGCTGC) | 0
23 | TGGGCTACATGGACCGGTTTTCCCGGTAATCCGTATTTGCA (site TGGGCTACTTG) | 1.79
24 | TGGGTAACATGGACCGGTTTTCCCGGTAATCCGTATTTGAC (site TGGGTAACTGT) | 1.61
25 | TGGGTAGCATGGACCGGTTTTCCCGGTAATCCGTATTTGGG (site TGGGTAGCTCC) | 0

Row | Sequence | recombinant UMI read abundance (log10)
26 | TGGGTGACATGGACCGGTTTTCCCGGTAATCCGTATTTGAG (site TGGGTGACTCT) | 0.83
27 | TGGTAACCATGGACCGGTTTTCCCGGTAATCCGTATTTGTG (site TGGTAACCTCA) | 0.0137
28 | TGGTCAACATGGACCGGTTTTCCCGGTAATCCGTATTTGCG (site TGGTCAACTCG) | 0.0115
29 | TGGTCCTCATGGACCGGTTTTCCCGGTAATCCGTATTTGTC (site TGGTCCTCTGA) | 1.33
30 | TGGTCGGCATGGACCGGTTTTCCCGGTAATCCGTATTTGGC (site TGGACGGCTGC) | 0
31 | TGGTCGGCATGGACCGGTTTTCCCGGTAATCCGTATTTGGC (site TGGCCGGCTGC) | 0.682
32 | TGGTCGGCATGGACCGGTTTTCCCGGTAATCCGTATTTGGC (site TGGGCGGCTGC) | 0.00726
33 | TGGTCGGCATGGACCGGTTTTCCCGGTAATCCGTATTTGGC (site TGGTCGGCTGC) | 0.268
34 | TGGTCTGCATGGACCGGTTTTCCCGGTAATCCGTATTTGCG (site ACCGTCTCTGA) | 0
35 | TGGTGTACATGGACCGGTTTTCCCGGTAATCCGTATTTGAA (site TGGTGTACTTT) | 0.131
36 | TGGTTTCCATGGACCGGTTTTCCCGGTAATCCGTATTTGCC (site TGGTTTCCTGG) | 0
37 | TGTAAAGCATGGACCGGTTTTCCCGGTAATCCGTATTTGAC (site TGTAAAGCTGT) | 0.0139
38 | TGTACAACATGGACCGGTTTTCCCGGTAATCCGTATTTGCT (site TGTACAACTAG) | 0.836
39 | TGTACCCCATGGACCGGTTTTCCCGGTAATCCGTATTTGTA (site TGTACCCCTTA) | 0.292
40 | TGTACCCCATGGACCGGTTTTCCCGGTAATCCGTATTTGTA (site TGTCCCCCTTA) | 0.253
41 | TGTACCCCATGGACCGGTTTTCCCGGTAATCCGTATTTGTA (site TGTGCCCCTTA) | 0
42 | TGTACCCCATGGACCGGTTTTCCCGGTAATCCGTATTTGTA (site TGTTCCCCTTA) | 0.00713
43 | TGTACCGCATGGACCGGTTTTCCCGGTAATCCGTATTTGGG (site TGTACCGCTCC) | 0.0251
44 | TGTACCTCATGGACCGGTTTTCCCGGTAATCCGTATTTGGG (site TGTACCTCTCC) | 0.0503
45 | TGTACCTCATGGACCGGTTTTCCCGGTAATCCGTATTTGGT (site TGTACCTCTAC) | 0.0562
46 | TGTACGTCATGGACCGGTTTTCCCGGTAATCCGTATTTGTT (site AGTACGTCTAA) | 0.00241
47 | TGTACGTCATGGACCGGTTTTCCCGGTAATCCGTATTTGTT (site CGTACGTCTAA) | 0.031
48 | TGTACGTCATGGACCGGTTTTCCCGGTAATCCGTATTTGTT (site GGTACGTCTAA) | 0.031
49 | TGTACGTCATGGACCGGTTTTCCCGGTAATCCGTATTTGTT (site TGTACGTCTAA) | 0.00887
50 | TGTACTACATGGACCGGTTTTCCCGGTAATCCGTATTTGGT (site TGTACTACTAC) | 0.00344

Row | Sequence | recombinant UMI read abundance (log10)
51 | TGTAGAACATGGACCGGTTTTCCCGGTAATCCGTATTTGCC (site TGTAGAACTGG) | 0.754
52 | TGTAGAACATGGACCGGTTTTCCCGGTAATCCGTATTTGGG (site TGTAGAACTCC) | 0.00647
53 | TGTAGTACATGGACCGGTTTTCCCGGTAATCCGTATTTGAC (site TGTAGTACTGT) | 0.509
54 | TGTATCGCATGGACCGGTTTTCCCGGTAATCCGTATTTGCT (site TGTATCGCTAG) | 1.57
55 | TGTATTTCATGGACCGGTTTTCCCGGTAATCCGTATTTGGG (site TGTATTTCTCC) | 0.402
56 | TGTCGTCCATGGACCGGTTTTCCCGGTAATCCGTATTTGCA (site TGTCGTCCTTG) | 0.616
57 | TGTCTTCCATGGACCGGTTTTCCCGGTAATCCGTATTTGTC (site TGTCTTCCTGA) | 0
58 | TGTGATTCATGGACCGGTTTTCCCGGTAATCCGTATTTGTT (site TGTGATTCTAA) | 0
59 | TGTTAACCATGGACCGGTTTTCCCGGTAATCCGTATTTGTC (site TGTTAACCTGA) | 0
60 | TGTTAGACATGGACCGGTTTTCCCGGTAATCCGTATTTGAG (site AGTTAGACTCT) | 0.103
61 | TGTTAGACATGGACCGGTTTTCCCGGTAATCCGTATTTGAG (site CGTTAGACTCT) | 0.204
62 | TGTTAGACATGGACCGGTTTTCCCGGTAATCCGTATTTGAG (site GGTTAGACTCT) | 0.0119
63 | TGTTAGACATGGACCGGTTTTCCCGGTAATCCGTATTTGAG (site TGTTAGACTCT) | 0.233
64 | TGTTCCGCATGGACCGGTTTTCCCGGTAATCCGTATTTGTC (site TGTTCCGCTGA) | 1.06
65 | TGTTGAGCATGGACCGGTTTTCCCGGTAATCCGTATTTGCA (site TGTTGAGCTTG) | 0.98
66 | TGTTTAGCATGGACCGGTTTTCCCGGTAATCCGTATTTGGG (site TGTTTAGCTCC) | 0.00333
67 | TTAAAGCCATGGACCGGTTTTCCCGGTAATCCGTATTTGGC (site TTAAAGCCTGC) | 0
68 | TTAATATCATGGACCGGTTTTCCCGGTAATCCGTATTTGAC (site CTAGTATCTGT) | 0
69 | TTAATATCATGGACCGGTTTTCCCGGTAATCCGTATTTGAC (site TTAATATCTGT) | 1.18
70 | TTACAAACATGGACCGGTTTTCCCGGTAATCCGTATTTGAG (site TTACAAACTCT) | 2.21
71 | TTACCCACATGGACCGGTTTTCCCGGTAATCCGTATTTGTG (site TTACCCACTCA) | 0.0352
72 | TTACGCTCATGGACCGGTTTTCCCGGTAATCCGTATTTGAT (site TTACGCTCTAT) | 1.93
73 | TTACGTGCATGGACCGGTTTTCCCGGTAATCCGTATTTGTA (site TTACGTGCTTA) | 1.51
74 | TTACGTTCATGGACCGGTTTTCCCGGTAATCCGTATTTGAG (site TTACGTTCTCT) | 1.76
75 | TTACTGTCATGGACCGGTTTTCCCGGTAATCCGTATTTGGA (site TTACTGTCTTC) | 1.38
